Data set [1] deals with HT1080 cells. The data set is described as follows: Cell cycle analysis by propidium iodide staining and flow cytometry. The data set is classed as cell-based. Particulars: for effect on cell cycle distribution / % Cells In S-Phase: normoxic; for effect on cell cycle distribution: #10 0.3-100 nM, 1205 10 nM; for % Cells In S-Phase: HT1080 cells, 100 nM, 18 hours, DMSO control 17.3, >20% considered active.

The test system of data set [2] is HT 1080 cells. The data set is described as follows: Kinetics of S-phase transit by BrdU incorporation into DNA. The conditions noted are these: 18-hour treatment. The data set is classed as cell-based. The protocol:
HT 1080 cells are exposed to BrdU (bromodeoxyuridine, a synthetic nucleoside that is an analogue of thymidine and is incorporated into DNA during the S phase of cell division) (FITC BrdU Flow Kit, BD Pharmingen catalog #552598). Cells are grown and treated as described in Section 9.3.1.3 above with the exception that one hour prior to harvesting by trypsinization, BrdU (final concentration 1 μM) is added to each culture for 1 hour. Cells actively replicating DNA during this brief time incorporate the BrdU into the DNA, which can then be quantified. BrdU content is quantified using the FITC BrdU Flow Kit as instructed by the manufacturer. The process includes fixation (paraformaldehyde) and DNA staining with 7-AAD (7-amino-actinomycin D) followed by incubation with a fluoro-tagged anti-BrdU antibody that specifically recognizes BrdU incorporated into DNA. Dual channel FACS analysis permits assessment of both the DNA content of individual cells and the rate of transit across the S-phase, which is assessed based upon BrdU incorporation over the one hour treatment period.

For data set [3], the system named is HT1080 spheroids. The data set is described as follows: 3-dimensional growth of HT1080 spheroids (BrdU/7-AAD FACS, morphology). The data set is classed as cell-based.
Data set [4] deals with HCV genotype 1b replicon. The data set is described as follows: HCV subgenomic replicon assay, genotype 1b, standard cell culture. The data set is classed as cell-based, hepatitis C virus. Background: In antiviral work, replicon cells carry a viral genome segment that copies itself.
Data set [5] relates to Adenovirus. The data set is described as follows: Adenovirus CPE protection assay in HeLa cells. The data set is classed as cell-based. Particulars: unidentified adenovirus, DNA.
Data set [6] concerns HSV-1. The data set is described as follows: HSV-1 CPE protection assay in Vero cells. The data set is classed as cell-based, herpes simplex virus-1. The conditions noted are these: Human alphaherpesvirus 1, HSV-1, DNA.
In data set [7] the test system is Influenza A. Nature of the data set: microbe, parasite or virus in culture. Particulars: MDCK. The data set is classed as cell-based.
The test system of data set [8] is Parainfluenza. The data set is described as follows: Parainfluenza CPE protection assay in Vero cells. The conditions noted are these: (−) RNA. In kind it is cell-based, parainfluenza virus.
Data set [9] has as its system RSV. Nature of the data set: RSV CPE protection assay in Vero cells. In kind it is cell-based. The conditions noted are these: human respiratory syncytial virus.
The subject of data set [10] is Dengue 2. Nature of the data set: Dengue 2 CPE protection assay in Vero E6 cells. In kind it is cell-based. Particulars: Dengue virus, Vero C1008, Dengue 2, (+) RNA.
For data set [11], the system named is HIV-1. The data set is described as follows: HIV-1 CPE protection assay in MT-2 cells. The data set is classed as cell-based. Particulars: Human immunodeficiency virus 1, MT2; HIV-1, Retro, MT-2, CPE protection. On the procedure: (§1) The activity against HIV-1 was tested in MT2 cells and PBMCs in cell culture by preventing virus induced cytopathic effect and measuring viral p24 protein in the culture supernatant.

Data set [12] relates to HIV-1. The data set is described as follows: HIV-1 p24 ELISA assay in PBMCs. In kind it is cell-based. Particulars: Human immunodeficiency virus 1, PBMC, HIV-1, Retro. The protocol: as §1
Data set [13] can be described thus: Cytotoxicity (CC50) in MT-2 cells. Particulars: human, MT-2, HIV-1 line. The data set is classed as cell-based.
The nature of data set [14]: Cytotoxicity (CC50) in PBMCs. The data set is classed as cell-based. The conditions noted are these: human, HIV-1 line.
Data set [15] in a line: Safety pharmacology studies. From the text:
(§2) Nonclinical safety testing further supports clinical development of Compound #10.

A short description of data set [16]: Toxicology study in rats through 28 days. The data set is classed as in vivo. The conditions noted are these: doses and exposures in excess of therapeutic nonclinical doses.
Excerpt: as §2

A short description of data set [17]: Toxicology study in dogs through 28 days. In kind it is in vivo. The conditions noted are these: doses and exposures in excess of therapeutic nonclinical doses.
Excerpt: as §2

The nature of data set [18]: Genotoxicity studies.
Excerpt: as §2

Data set [19] in a line: Phase 1a single-dose study in healthy volunteers. The data set is classed as in vivo, human. Particulars: healthy subjects, single doses through 3 mg/kg (~210 mg), highest single dose tested. On the procedure:
Initial clinical evaluation of Compound #10 was performed in healthy volunteers.

Data set [20] is described as follows: Phase 1b and Phase 2 studies in patients with neoplasia (safety). In kind it is in vivo, human. Particulars: 0.3 mg/kg/dose BID to 200 mg/dose TID, at least 4-6 weeks. On the procedure:
To date, doses of 0.3 mg/kg/dose (˜20 mg/dose) (n=6), 0.6 mg/kg/dose (˜40 mg/dose) (n=9), 1.2 mg/kg/dose (˜80 mg/dose) (n=12) BID have been tested for at least 4 weeks. In addition, 100 mg/dose BID (n=52), 100 mg/dose TID (n=6), 120 mg/dose TID (n=3), 160 mg/dose TID (N=3), and 200 mg/dose TID (n=3) have been tested for at least 6 weeks of continuous treatment.

Data set [21] has as its system Vero. The conditions noted are these: WNV line.
Data set [22] in a line: in vitro. Particulars: African green monkey, CC50 (μM).
Data set [23] in a line: in vitro. The conditions noted are these: human.
Data set [24] is described as follows: in vitro. Particulars: African green monkey.
Data set [25] is described as follows: in vitro. The conditions noted are these: dog.
Data set [26] is described as follows: Cytotoxicity (CC50) in HeLa cells. Particulars: human.
Data set [27] can be described thus: Bioavailability in vivo from aqueous suspension. The conditions noted are these: administered in an aqueous suspension. On the procedure: It is anticipated that Compound 1205 can be clinically administered via a solid-dosage form. For all the studies outlined herein, Compound 1205 was lyophilized prior to formulation to minimize batch-to-batch variations in particle-size.
The compound was dissolved in acetonitrile at a concentration of 15 mg/mL. An equal amount of water was added to bring the final concentration to 7.5 mg/mL in a 1:1 acetonitrile/water solution (v/v). The solution was frozen on the shelf of the freeze dryer for a minimum of 3 hours and then lyophilized. The resulting solid was determined to be amorphous by differential scanning calorimetry and polarized light microscopy. Suspensions were prepared by the addition of 0.5% HPMC with 1% Tween-80, followed by stirring and homogenization for 2 minutes.

One may read the IC50 as the midpoint of a concentration-inhibition curve. For orientation: IC90 means the concentration needed for an effect of 90%.

“And” between values parts separate entries of the source, which are not always exact repeats. Identical values can stand only once.

For `COc1ccc([C@H]2c3[nH]c4ccc(Cl)cc4c3CCN2C(=O)Oc2ccc(Cl)cc2)cc1` (racemic) [#10], the “concentration from which an accumulation of cells in S phase is observed” value in data set [1] (HT1080, 18 hours) is no less than 1 nM. Further, the “effect on cell cycle distribution” value in data set [1] (HT1080, 18 hours) is reported as “induced a redistribution of the cycling characteristics of the cell population”. In addition, the “BrdU incorporated by individual cells during one-hour pulse versus DMSO control” value in data set [2] is “less BrdU”. In addition, the “percentage of cells residing in S-phase” value in data set [2] (increasing doses (1-100 nM)) is “net increase”. In addition, in data set [3] (24 or 48 hours, 10 nM or 50 nM), the “percentage of spheroid cells that incorporated BrdU (cells in S-phase)” value was “not significantly altered”. Also, the “gross morphology of spheroids” value in data set [3] (day 5 of treatment, 10 nM or 50 nM) is reported as “indistinguishable from one another”. In addition, the “morphology of spheroids” value in [3] (maintained in presence of compound for three weeks) is on record as “no obvious morphological changes”. For the same compound, the “cell cycle distribution of HT1080 spheroids” value in data set [3] (treated for 24 hours) and in [3] (treated for 48 hours) was “not affected” throughout. Moreover, the “antiviral activity in HCV replicon systems” value in [4] is on record as “potent in vitro inhibitory activity”. Moreover, the 50% inhibitory concentration (IC50) was greater than 1000 nM in data set [5]; greater than 1000 nM in [6]; greater than 1000 nM in data set [7]; 29 nM in data set [8]; 250 nM in data set [9]; greater than 1000 nM in [10]. The IC50 was 22 nM in data set [11] and greater than 1000 nM in data set [12]. Further, the IC90 in [5] was greater than 1000 nM; in data set [6], greater than 1000 nM; in [7] it was greater than 1000 nM; in data set [8], 44 nM; in data set [9] it was no less than 160 nM; in data set [10] it was greater than 1000 nM. Also, the CC50 was 4.1 nM in data set [13]; 680 nM in data set [14]; greater than 1000 nM in data set [21]; 0.7 µM and 0.083 µM in data set [22]; greater than 1000 nM in [23]; greater than 1000 nM in [24]. The CC50 in data set [25] and in data set [26] was greater than 1000 nM each time. In addition, in data set [15], the “safety pharmacology finding” value was “no adverse off-target effects”. In addition, the “tolerability in toxicology study” value in [16] and in data set [17] was “good tolerability” throughout. The “genotoxicity finding” value in data set [18] is recorded as “no evidence of genotoxic effects”. The “clinical safety” value in data set [19] was “acceptable safety”. In addition, the “clinical tolerability” value in data set [20] is reported as “generally well tolerated”.

As to `O=C(Oc1ccc(Cl)cc1)N1CCc2c([nH]c3ccc(Cl)cc23)C1c1ccc(OCCN2CCOCC2)cc1` (stereo not drawn) [Compound 331], the “% Cells In S-Phase” value in data set [1] is recorded as 16.4%.

In the case of `O=C(Oc1ccc(Cl)cc1)N1CCc2c([nH]c3ccc(Cl)cc23)[C@@H]1c1ccc(OCC[C@H](O)CO)cc1` [Compound 1205], in [1] (HT1080, 18 hours), the “effect on cell cycle distribution” value is “induced a redistribution of the cycling characteristics of the cell population”. In addition, the “bioavailability in vivo” value in data set [27] was “bioavailable”.

Regarding `O=C(Oc1ccc(Cl)cc1)N1CCc2c([nH]c3ccc(Cl)cc23)C1c1ccc(OCCN2CCCCC2)cc1` (stereo not drawn) [Compound 1736], the “% Cells In S-Phase” value in data set [1] was found to be 16.8%.

The record behind these values is patent US20130171103A1, “METHODS FOR TREATING VIRAL CONDITIONS” (PTC Therapeutics, Inc., priority 2010, published 2013).
